Measurements taken from patent US20250134855A1, “CO[…] AND METHODS OF USING SAME” (LYKOS THERAPEUTICS, INC., priority 2022, published 2025).
Where two headings read alike, the source gives them in different places.

Assay: Study MPKF: plasma pharmacokinetics of MDMA and MDA, single 120 mg MDMA·HCl, fasted/fed
Format: in vivo, human
Details: for Tmax: median; for concentration at 0.5 h: .5 h
Excerpt: The MPKF was a Phase 1, open-label, randomized sequence, multi-dose, 2-period crossover food effect study in 16 healthy individuals. The MPKF study evaluated plasma concentrations of both MDMA and the active metabolite 3,4-methylenedioxyamphetamine (MDA). Summary PK Parameters of the preliminary data was based on interim analysis are presented in Table 12 Table 12 Table 12, and Table 13 Table 13 Table 13 for MDMA and MDA, respectively.
Participants were randomized to receive 1 of 2 conditions before the other: • Fasted Treatment: at least 10 hours of fasting followed by administration of MDMA HCl with 240 mL water. • Fed Treatment: at least 10 hours of fasting followed by a high-fat (approximately 50% of total caloric content of the meal) and high-calorie (approximately 800 to 1000 calories) meal was consumed within 30 minutes prior to IMP administration.
Participants remained at the clinical research unit (CRU) for each Dosing Session from the time of check-in on the night before dosing until discharge 48 hours after dosing for collection of serial blood samples for PK analysis and safety monitoring. IMP was administered on Day 1 following the treatment sequence to which the participant was randomized. An additional outpatient visit occurred 72 hours after dosing to collect a final PK sample, commensurate with the expected PK profiles of MDMA and MDA. Safety assessments were also performed at this visit.
The washout period between Dosing Sessions was at least 14 days. If a participant experienced emesis within 4 hours of administration, they were to be withdrawn from the study and replaced with a new participant. An End of Study Visit was performed 2 to 10 days after the completion of the final Dosing Session 72-hour follow-up. An informal interim analysis was planned to be conducted after at least 5 participants completed at least 1 Dosing Session to examine PK variability.
The API was a white crystalline powder of pharmaceutical quality, made according to current Good Manufacturing Practices (cGMP) for human use.
Participants: Sixteen healthy individuals were recruited for the study.
Intervention: The study was conducted as a Phase 1, open-label, randomized sequence, multi-dose, 2-period crossover food effect study. Each participant received multiple doses of MDMA, and plasma concentrations of both MDMA and the active metabolite MDA were measured.
Sample Collection: Blood samples were collected at various time points up to 72 hours after dosing. The samples were analyzed using validated liquid chromatography-tandem mass spectrometry (LC-MS/MS) methods.
Data Analysis: The summary PK parameters were presented in Table 12 for MDMA and Table 13 for MDA. The data were analyzed using descriptive statistics, and the mean and standard deviation were calculated. The results were compared between the two periods and analyzed for food effects. Statistical analyses were performed using appropriate methods, such as analysis of variance (ANOVA) and paired t-tests. A p-value of less than 0.05 was considered statistically significant.

[1] = Fasted N = 15, 120 mg MDMA·HCl, preliminary
[2] = Fasted N = 15, 120 mg MDMA·HCl, preliminary, arithmetic mean
[3] = Fed N = 11, 120 mg MDMA·HCl, preliminary
[4] = Fed N = 11, 120 mg MDMA·HCl, preliminary, arithmetic mean
[5] = human, plasma, oral, 120 mg, fasted treatment group, read-out: PK plasma concentration, Geom. Mean
[6] = human, plasma, oral, 120 mg, fasted treatment group, read-out: PK plasma concentration, Mean
[7] = human, plasma, oral, 120 mg, fasted treatment group, read-out: PK plasma concentration, Median

CNC(C)Cc1ccc2c(c1)OCO2 (stereo not shown) [MDMA, 3,4-methylenedioxymethamphetamine]
higher plasma PK values in intermediate relative to normal CYP2D6 metabolizers (8 intermediate, 8 normal metabolizers): approximately 26% | Cmax, Geometric LSM (Fasted): 238 ng/mL | Tlag [1]: 0.6 h | CL/F [2]: 29.5 L/h | Cmax [2]: 238 ng/mL | Tmax [1]: 2 h | AUC0-inf, Geometric LSM (Fed): 3357 ng·h/mL | Cmax, Geometric LSM (Fed): 229 ng/mL | Tlag [3]: 0.7 h | AUC(0-inf) [4]: 3318 ng·h/mL | CL/F [4]: 30.1 L/h | Cmax [4]: 227 ng/mL | Tmax [3]: 4 h | Cmax (both sexes, human, plasma, oral, single 120 mg dose of MDMA·HCl, fasting healthy males and females, read-out: Cmax): 261 ng/mL | Cmax (both sexes, human, plasma, po, single 120 mg dose of MDMA·HCl, fasting healthy males and females, read-out: Cmax): 261 ng/mL | AUC0-72, Geometric Mean Ratio (fed vs fasted): 0.99 | AUC0-inf, Geometric Mean Ratio (fed vs fasted): 0.99 | AUC0-t, Geometric Mean Ratio (fed vs fasted): 1.00 | Cmax, Geometric Mean Ratio (fed vs fasted): 0.97 | dose proportionality of pharmacokinetics (higher than dose proportional increases, auto-inhibition of CYP2D6): non-linear | AUC(0-t) (human, plasma, oral, 120 mg, Fasted, read-out: AUC0-72, Geometric LSM): 3360 ng·h/mL | AUC(0-inf) (human, plasma, oral, 120 mg, Fasted, read-out: AUC0-inf, Geometric LSM): 3380 ng·h/mL | AUC(0-t) (human, plasma, oral, 120 mg, Fasted, read-out: AUC0-t, Geometric LSM): 3120 ng·h/mL | AUC(0-t) (human, plasma, oral, 120 mg, Fed, read-out: AUC0-72, Geometric LSM): 3340 ng·h/mL | AUC(0-t) (human, plasma, oral, 120 mg, Fed, read-out: AUC0-t, Geometric LSM): 3110 ng·h/mL | half-life (human, plasma, oral, 120 mg, both fed and fasted groups, read-out: mean elimination half-life): 8 to 9 h | concentration at 1 h [5]: 111 ng/mL | concentration at 1 h [6]: 111 ng/mL | concentration at 1 h [7]: 124 ng/mL | concentration at 2 h [5]: 186 ng/mL | concentration at 2 h [6]: 210 ng/mL | concentration at 2 h [7]: 211 ng/mL | concentration at 4 h [5]: 219 ng/mL | concentration at 4 h [6]: 225 ng/mL | concentration at 4 h [7]: 218 ng/mL | concentration at 6 h [5]: 188 ng/mL | concentration at 6 h [6]: 193 ng/mL | concentration at 6 h [7]: 199 ng/mL | concentration at 8 h [5]: 160 ng/mL | concentration at 8 h [6]: 166 ng/mL | concentration at 8 h [7]: 165 ng/mL | concentration at 12 h [5]: 111 ng/mL | concentration at 12 h [6]: 118 ng/mL | concentration at 12 h [7]: 120 ng/mL | concentration at 24 h [5]: 44.2 ng/mL | concentration at 24 h [6]: 50.1 ng/mL | concentration at 24 h [7]: 53.6 ng/mL | concentration at 48 h [5]: 12.3 ng/mL | concentration at 48 h [6]: 7.61 ng/mL | concentration at 48 h [7]: 6.5 ng/mL | concentration at 72 h [5]: 6.25 ng/mL | concentration at 72 h [6]: 0.417 ng/mL | concentration at 72 h [7]: 0 ng/mL | concentration at 0.5 h [5]: 39.3 ng/mL | concentration at 0.5 h [6]: 23.1 ng/mL | concentration at 0.5 h [7]: 0 ng/mL | concentration at 1 h (human, plasma, oral, 120 mg, fed treatment group, read-out: PK plasma concentration, Geom. Mean): 46.2 ng/mL | concentration at 1 h (human, plasma, oral, 120 mg, fed treatment group, read-out: PK plasma concentration, Mean): 59.8 ng/mL
